Measured values: US20230190935A1, “Blood pathogen inactivation method” (Institute of Blood Transfusion CAMS, priority 2021, published 2023)

Test system: S. aureus
Assay: Pathogen inactivation in plasma spiked with S. aureus: combinations of low-frequency sonication, UV light and riboflavin
Type: cell-based
Settings: for growth of S. aureus after treatment: n = 6

`Cc1cc2nc3c(=O)[nH]c(=O)nc-3n(C[C@H](O)[C@H](O)[C@H](O)CO)c2cc1C` [riboflavin] was tested, and the “growth of S. aureus after treatment” value (Riboflavin-containing sample (50 µmol/L, plasma) + low-frequency sonication 30 KHz, no illumination, table row 0.27 J/mL, 10 min) was 5.84 ± 0.18 log, the “growth of S. aureus after treatment” value (Riboflavin-containing sample (50 µmol/L, plasma) + low-frequency sonication 30 KHz, no illumination, table row 0.54 J/mL, 20 min) was 5.72 ± 0.30 log and the “growth of S. aureus after treatment” value (Riboflavin-containing sample (50 µmol/L, plasma) + low-frequency sonication 30 KHz, no illumination, table row 0.81 J/mL, 30 min) was 5.67 ± 0.32 log. The “growth of S. aureus after treatment” value (Sonication (30 KHz) + UV light (311 ± 50 nm) + riboflavin 50 µmol/L in plasma, light energy 0.27 J/mL, 10 min) was 4.48 ± 0.46 log, the “growth of S. aureus after treatment” value (Sonication (30 KHz) + UV light (311 ± 50 nm) + riboflavin 50 µmol/L in plasma, light energy 0.54 J/mL, 20 min) was 2.04 ± 0.71 log and the “growth of S. aureus after treatment” value (Sonication (30 KHz) + UV light (311 ± 50 nm) + riboflavin 50 µmol/L in plasma, light energy 0.81 J/mL, 30 min) was 1.28 ± 0.66 log. For the same compound, the “growth of S. aureus after treatment” value (UV light (311 ± 50 nm) + riboflavin 50 µmol/L in plasma, no sonication, light energy 0.27 J/mL, 10 min) was 5.41 ± 0.029 log, the “growth of S. aureus after treatment” value (UV light (311 ± 50 nm) + riboflavin 50 µmol/L in plasma, no sonication, light energy 0.54 J/mL, 20 min) was 5.66 ± 0.09 log and the “growth of S. aureus after treatment” value (UV light (311 ± 50 nm) + riboflavin 50 µmol/L in plasma, no sonication, light energy 0.81 J/mL, 30 min) was 5.23 ± 0.16 log. The “pathogen inactivation effect (in words)” value (UV light + riboflavin group, 0.81 J/mL) was “no inactivation effect”, the “effect of combining low-frequency sonication with riboflavin photochemical method (in words)” value (low-frequency sonication + UV light + riboflavin) was “synergistic effect” and the “pathogen inactivation effect (in words)” value (sonication + UV light + riboflavin group) was “strong pathogen inactivation effect”. For the same compound, the “pathogen inactivation effect (in words)” value (sonication + riboflavin group, 0.81 J/mL) was “no inactivation effect”.
